How the values were obtained:
[1] = stoichiometry of the complexes with LPS by amino acid analysis; assay type: binding; conditions: 10 μg B. Pertussis LPS (2.64 nmoles Lipid A) + 10 μg peptide
Procedure: Quantitation of the amount of precipitated peptides present in the complexes with PLS of B. pertussis has been done by amino acid analysis after acid hydrolysis (by 6 M HCl) of the complexes recovered by centrifugation at 3,000 rpm×15 minutes. In Table III, the stoichiometry of some complexes is reported as calculated by the ratio (on molar basis) between the amount of each peptide and the amount of Lipid A present in the structure of LPS used in the experiments:
*Complexes formed between 10 μg of B. Pertussis LPS (equivalent to 4.5
μg of Lipid A of 2.64 nmoles) and 10 μg of peptide (twice the amoun
corresponding to the saturation point found for Polymyxin "B" in the
**Values represent the average of two separate experiments of amino acid
analysis after acid hydrolysis of the recovered complexes.

[2] = direct competition with Polymyxin "B" (Affinity constant, Selectivity); assay type: binding, B. pertussis
Excerpt: To further characterize the binding activity of the synthetic peptides for Lipid A of endotoxin, experiments of direct competition with Polymyxin "B" have been set-up in order to evaluate the Affinity constant value of Polymyxin "B" for the toxic moiety of endotoxin and ultimately to calculate the Selectivity of the synthetic peptide analogs (ratio on molar basis, between the affinity constant value of a given peptide and that of Polymyxin "B" for Lipid A).

[3] = Limulus (LAL) test, inhibition of LPS-induced gelation; assay type: biochemical, B. Pertussis; conditions: LPS/Pept (w/w) 1; LPS 0.1 μg
Excerpt: As a consequence of this high-affinity binding to the Lipid A moiety of endotoxins, most of the synthetic peptide analogs have shown the ability to detoxify endotoxins as evidenced by in vitro as well as in vivo analysis. The in vitro test used, as measure of detoxification, the inhibition of the enzymatic cascade leading to the coagulation of the Lymulus lysate (LAL test) by endotoxin. The LAL test is recognized as the most sensitive and predictive test for the toxic and pyrogenic activity of LPS, since pyrogenicity in vivo is related to the release of the endogenous immune modulators Interleukin-1 (IL-l) and alfa-Tumor necrosis factor (α-TNF), the mediators responsible for the fatalities associated to septic shock. As an in vivo test confirming detoxification of LPS, was then used the Rabbit pyrogen test performed according to the United States Pharmacopeia XXI.
The results obtained by the Limulus (LAL) test, shown in Table V, support the data obtained by measuring the Affinity of the peptides of the invention for the Lipid A moiety of LPS in that they were substantially equivalent to Polymyxin "B" in the inhibition of LPS activity on Limulus. […] Peptide I was, in fact, the one presenting the non complete structure needed for the mimick of Polymyxin "B" as the synthetic peptide analogs II, IV, VI and VII have clearly shown in the previous Table IV. […]

trypsin in human serum = assay: stability towards proteolysis by trypsin in human serum; assay type: in vitro ADME
Procedure: The effects of trypsin present in human serum on Polymyxin "B" and the peptides of invention was determined by combining 10 μl of human serum with 20 μg of the given peptide in 10 μl volume and holding the mixture at a temperature of 37° C. for different intervals of time. At various times, an aliquot of the mixture was processed by HPLC analysis in order to detect the residual amount of the investigated peptide. In Table VI the half-lives time of each peptide investigated are shown as compared to the half-life time of Polymyxin "B".

Salmonella Typhi = assay: antibiotic activity, zone of inhibition on BHI plates; assay type: cell-based, S. typhi; conditions: 18 hours
Procedure: (§1) The following experiments compared the antibiotic activity of Polymyxin "B" with various peptides of the invention.
(§2) The tests were performed on BHI plates with liquid cultures of the test organism to give a lawn. Each peptide was diluted in water and placed on sterile Wathmam 3M disks on the surface of the plate. The plates were dried and incubated at 37° C. The zone of inhibition was measured after 18 hours: […]

Haemophilus influenzae = assay: as above; assay type: cell-based, H. influenzas; conditions: 18 hours
Procedure: as §1, §2

[4] = test system: spleen cells from unimmunized healthy SJL/J mice; assay: LPS-induced polyclonal B-cell activation, 3H-thymidine incorporation; assay type: cell-based; conditions: LPS 50 μg/ml, LPS alone 22,737, non stimulated 2,449 cpm
Procedure: Cells were cultured in RPMI medium containing 1.0% normal mouse serum at 37° C. for 3 days. Cultures were pulsed with 1.0 μi/well of 3H-thymidine for 16 hours and harvested for counting on an LS betaplate counter. The results were as follows:
cpm measured with non stimulated cultures = 2,449.

[5] = survival of Balb/c mice after endotoxin challenge; assay type: in vivo, mice (Strain Balb/c); conditions: for % survival / Mice surviving: peptides 1 mg/mouse, Polymyxin B 0.1 mg/mouse i.v., 1 mg endotoxin i.p.; for Mice surviving: 20 mice per group
Procedure: Groups of 20 mice Balb/c have been treated intravenously with the peptides of the invention at the dose of 1 mg/mouse or with 0.1 mg/mouse of Polymyxin B (the highest dose of this drug tolerated in the mouse, when injected alone). Thirty minutes later, mice were challenged by intraperitoneal injection of 1 mg endotoxin from E.C strain 055-B5. Surviving mice were recorded every 24 hours during a seven days-period of observation. Negative controls received an intravenous injection of saline.
There were 20 mice per group. Mice surviving at each of the seven 24 hours observation periods are listed. The % survival appears in parenthesis. P expresses the level of statistical significance calculated by "t-Test" for each molecule compared to the treatment with saline, considering the total survival rate in each group.

[6] = highest dose tolerated in the mouse when injected alone; assay type: in vivo; conditions: intravenously

Polymyxin "B"
Ratio peptide/LipA [1]: 1.02 mol/mol | Amount of peptide in the complex ([1]; average of two experiments): 2.69 nmol | AFFINITY (Ka) ([2]; for Lipid A of LPSbp): 1.15e+07 L/mol | SELECTIVITY (KaANA /KaPCP) ([2]; ratio of Ka of peptide to Ka of Polymyxin "B" for Lipid A): 1.0 | LAL TEST [3]: NEGATIVE | stability in the presence of proteolytic enzymes such as trypsin (trypsin in human serum): stable in the presence of trypsin | Half-Life Time (t/2) (trypsin in human serum; human serum, 37° C.): > 3 h | Zone (mm) of inhibition S. typhi (Salmonella Typhi; 0.008 μg/ml): 0 mm | Zone (mm) of inhibition S. typhi (Salmonella Typhi; 0.04 μg/ml): 1 mm | Zone (mm) of inhibition S. typhi (Salmonella Typhi; 0.2 μg/ml): 2 mm | Zone (mm) of inhibition S. typhi (Salmonella Typhi; 1.0 μg/ml): 4 mm | Zone (mm) of inhibition H. influenzas (Haemophilus influenzae; 0.008 μg/ml): 0 mm | Zone (mm) of inhibition H. influenzas (Haemophilus influenzae; 0.04 μg/ml): 0 mm | Zone (mm) of inhibition H. influenzas (Haemophilus influenzae; 0.2 μg/ml): 3 mm | Zone (mm) of inhibition H. influenzas (Haemophilus influenzae; 1.0 μg/ml): 6 mm | 3H-thymidine incorporation ([4]; 12.5 μg/ml): 2,366 cpm | 3H-thymidine incorporation ([4]; 25 μg/ml): 3,559 cpm | 3H-thymidine incorporation ([4]; 50 μg/ml): 2,831 cpm | 3H-thymidine incorporation ([4]; 100 μg/ml): 4,128 cpm | % survival ([5]; 24 hs): 90% | Mice surviving ([5]; 24 hs): 18 | % survival ([5]; 48 hs): 70% | Mice surviving ([5]; 48 hs): 14 | % survival ([5]; 72 hs): 60% | Mice surviving ([5]; 72 hs): 12 | % survival ([5]; 96 hs): 0% | Mice surviving ([5]; 96 hs): 0 | % survival ([5]; 120 hs): 0% | Mice surviving ([5]; 120 hs): 0 | % survival ([5]; 144 hs): 0% | Mice surviving ([5]; 144 hs): 0 | % survival ([5]; 168 hs): 0% | Mice surviving ([5]; 168 hs): 0 | safety and efficacy of treatment ([5]; Balb/c mice, 1 mg endotoxin challenge): resulted efficacious only within three days following the endotoxin challenge | highest dose tolerated in the mouse [6]: 0.1 mg/mouse

Source: patent publication US5371186A, “Synthetic peptides for detoxification of bacterial endotoxins and for the prevention and treatment of septic shock” (priority 1992, dated 1994)
